Results published in ChEMBL document CHEMBL1143160, “Novel 3-alkoxy-1H-pyrazolo[3,4-d]pyrimidines as EGFR and erbB2 receptor tyrosine kinase inhibitors” (Bioorg Med Chem Lett, 2008).

Key:
[1] = Antiproliferative activity against human BT474C cells; assay type: functional, cell-based
[2] = target: T1, Receptor tyrosine-protein kinase erbB-2 (Homo sapiens, UniProt P04626); assay: Inhibition of erbB2
[3] = target: T1, Receptor tyrosine-protein kinase erbB-2; assay: Inhibition of erB2 autophosphorylation in clone 24 cells; assay type: cell-based
[4] = target: Epidermal growth factor receptor (Homo sapiens, UniProt P00533)
Epidermal growth factor receptor, sequence (P00533 whole entry): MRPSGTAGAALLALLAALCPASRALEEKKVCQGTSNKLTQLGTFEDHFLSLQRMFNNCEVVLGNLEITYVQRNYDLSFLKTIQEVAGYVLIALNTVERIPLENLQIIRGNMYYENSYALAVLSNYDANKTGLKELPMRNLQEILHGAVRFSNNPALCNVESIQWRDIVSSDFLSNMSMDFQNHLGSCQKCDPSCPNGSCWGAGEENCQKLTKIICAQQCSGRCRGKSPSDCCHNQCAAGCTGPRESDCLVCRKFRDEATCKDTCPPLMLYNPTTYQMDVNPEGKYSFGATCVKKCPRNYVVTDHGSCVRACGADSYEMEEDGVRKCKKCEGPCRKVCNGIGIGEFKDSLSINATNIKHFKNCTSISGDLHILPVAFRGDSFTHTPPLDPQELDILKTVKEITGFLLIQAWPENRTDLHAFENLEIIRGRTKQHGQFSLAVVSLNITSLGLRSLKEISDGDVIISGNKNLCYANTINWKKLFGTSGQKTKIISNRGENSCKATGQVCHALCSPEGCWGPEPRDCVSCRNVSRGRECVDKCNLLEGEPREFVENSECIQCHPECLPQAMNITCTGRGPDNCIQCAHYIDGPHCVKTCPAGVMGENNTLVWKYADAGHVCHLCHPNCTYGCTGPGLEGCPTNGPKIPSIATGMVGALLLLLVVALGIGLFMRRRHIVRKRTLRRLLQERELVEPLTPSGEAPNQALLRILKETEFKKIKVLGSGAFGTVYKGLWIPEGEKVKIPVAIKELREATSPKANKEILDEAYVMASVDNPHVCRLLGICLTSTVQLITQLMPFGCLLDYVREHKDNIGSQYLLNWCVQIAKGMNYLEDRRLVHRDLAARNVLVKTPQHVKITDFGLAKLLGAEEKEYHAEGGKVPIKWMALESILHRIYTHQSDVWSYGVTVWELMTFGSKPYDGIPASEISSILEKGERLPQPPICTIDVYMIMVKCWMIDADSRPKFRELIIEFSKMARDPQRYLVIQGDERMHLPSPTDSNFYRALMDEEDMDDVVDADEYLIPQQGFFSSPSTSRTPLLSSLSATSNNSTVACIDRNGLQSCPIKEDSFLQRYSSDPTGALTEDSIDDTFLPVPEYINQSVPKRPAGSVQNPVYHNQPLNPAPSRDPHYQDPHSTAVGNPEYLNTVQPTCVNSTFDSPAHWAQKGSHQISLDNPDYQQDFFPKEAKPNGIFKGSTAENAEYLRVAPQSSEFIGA

KB = assay: Antiproliferative activity against EGF-induced human KB cells; assay type: functional, cell-based
[5] = Protein binding in rat plasma assessed as unbound ligand at 0.4 mg/kg, iv and 1 mg/kg, po; assay type: ADME, organism-based
[6] = Volume of distribution at steady state in rat at 0.4 mg/kg, iv and 1 mg/kg, po; assay type: ADME, organism-based; settings: in vivo, read-out: Vdss
[7] = Clearance in rat at 0.4 mg/kg, iv and 1 mg/kg, po; assay type: ADME, organism-based; settings: in vivo
[8] = Half life in rat at 0.4 mg/kg, iv and 1 mg/kg, po; assay type: ADME, organism-based; settings: in vivo
[9] = Oral bioavailability in rat at 1 mg/kg; assay type: ADME, organism-based; settings: in vivo
[10] = Protein binding in Beagle dog plasma assessed as unbound ligand at 0.2 mg/kg, iv and 0.4 mg/kg, po; assay type: ADME, organism-based, Canis lupus familiaris; settings: read-out: PPB
[11] = Volume of distribution at steady state in male and female Beagle dog at 0.2 mg/kg, iv and 0.4 mg/kg, po; assay type: ADME, organism-based, Canis lupus familiaris; settings: both, in vivo, read-out: Vdss
[12] = Clearance in male and female Beagle dog at 0.2 mg/kg, iv and 0.4 mg/kg, po; assay type: ADME, organism-based, Canis lupus familiaris; settings: both, in vivo
[13] = Half life in male and female Beagle dog at 0.2 mg/kg, iv and 0.4 mg/kg, po; assay type: ADME, organism-based, Canis lupus familiaris; settings: both, in vivo
[14] = Oral bioavailability in male and female Beagle dog at 0.4 mg/kg; assay type: ADME, organism-based, Canis lupus familiaris; settings: both, in vivo
P-gp = assay: Apparent permeability from apical to basolateral side of the dog MDCK cells expressing P-gp transporter; assay type: ADME, cell-based, Canis lupus familiaris; settings: MDCK-MDR1

T1 sequence (P04626 whole entry): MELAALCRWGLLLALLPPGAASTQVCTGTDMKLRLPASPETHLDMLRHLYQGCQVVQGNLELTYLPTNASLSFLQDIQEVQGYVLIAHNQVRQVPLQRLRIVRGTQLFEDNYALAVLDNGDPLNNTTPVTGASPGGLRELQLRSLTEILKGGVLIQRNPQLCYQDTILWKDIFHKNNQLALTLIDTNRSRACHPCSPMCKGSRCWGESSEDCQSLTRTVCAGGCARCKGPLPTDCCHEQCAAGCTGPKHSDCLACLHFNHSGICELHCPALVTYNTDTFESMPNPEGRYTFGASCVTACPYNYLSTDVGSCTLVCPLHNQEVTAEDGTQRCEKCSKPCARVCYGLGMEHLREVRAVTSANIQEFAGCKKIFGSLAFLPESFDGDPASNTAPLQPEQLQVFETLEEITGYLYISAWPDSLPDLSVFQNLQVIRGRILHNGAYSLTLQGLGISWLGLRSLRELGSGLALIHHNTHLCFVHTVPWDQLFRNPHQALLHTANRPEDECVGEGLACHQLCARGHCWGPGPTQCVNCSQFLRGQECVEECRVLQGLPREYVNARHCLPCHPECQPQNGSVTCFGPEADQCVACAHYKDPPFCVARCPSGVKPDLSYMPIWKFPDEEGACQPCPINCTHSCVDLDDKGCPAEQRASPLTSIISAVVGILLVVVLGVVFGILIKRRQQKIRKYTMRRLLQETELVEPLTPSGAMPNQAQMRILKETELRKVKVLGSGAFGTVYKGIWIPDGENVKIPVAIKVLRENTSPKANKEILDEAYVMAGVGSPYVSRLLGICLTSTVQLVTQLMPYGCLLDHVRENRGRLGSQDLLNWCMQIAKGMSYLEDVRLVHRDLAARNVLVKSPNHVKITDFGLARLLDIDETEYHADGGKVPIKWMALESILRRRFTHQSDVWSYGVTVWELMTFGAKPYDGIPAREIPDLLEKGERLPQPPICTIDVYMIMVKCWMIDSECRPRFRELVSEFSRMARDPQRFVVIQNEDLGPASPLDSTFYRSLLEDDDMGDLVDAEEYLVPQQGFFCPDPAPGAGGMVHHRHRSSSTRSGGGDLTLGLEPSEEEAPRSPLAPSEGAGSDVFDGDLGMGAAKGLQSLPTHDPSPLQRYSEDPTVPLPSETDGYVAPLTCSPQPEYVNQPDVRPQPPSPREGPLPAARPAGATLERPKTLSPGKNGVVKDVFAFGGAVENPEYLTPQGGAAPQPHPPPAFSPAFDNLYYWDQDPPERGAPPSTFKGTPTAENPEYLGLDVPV

| Structure (SMILES) | IC50 [2] | IC50 [3] | IC50 [4] | further results |
| --- | --- | --- | --- | --- |
| CN1CCC(Oc2cccc3ncnc(Nc4ccc(OCc5ccccn5)c(Cl)c4)c23)CC1 |  |  |  | IC50 [1]: 41 nM |
| CNCCOc1n[nH]c2ncnc(Nc3ccc(OCc4ccccn4)c(Cl)c3)c12 | 3 nM | 1000 nM | 17 nM |  |
| OC1CCN(CCOc2n[nH]c3ncnc(Nc4ccc(OCc5cccc(F)c5)c(Cl)c4)c23)CC1 | < 1 nM | 19 nM | < 1 nM |  |
| Clc1cc(Nc2ncnc3[nH]nc(OCCN4CCNCC4)c23)ccc1OCc1ccccn1 | 3 nM | 128 nM | 8 nM |  |
| Clc1cc(Nc2ncnc3[nH]nc(OCCCN4CCOCC4)c23)ccc1OCc1ccccn1 | < 1 nM | 440 nM | 16 nM |  |
| OC1CCN(CCCOc2n[nH]c3ncnc(Nc4ccc(OCc5ccccn5)c(Cl)c4)c23)CC1 | 6 nM |  |  |  |
| OCCOc1n[nH]c2ncnc(Nc3ccc(OCc4ccccn4)c(Cl)c3)c12 | 4 nM |  | 16 nM |  |
| CC(=O)N1CCN(CCOc2n[nH]c3ncnc(Nc4ccc(OCc5ccccn5)c(Cl)c4)c23)CC1 | < 1 nM | 129 nM | 3 nM |  |
| CN1CCN(CCOc2n[nH]c3ncnc(Nc4ccc(OCc5ccccn5)c(Cl)c4)c23)CC1 | 1 nM | 166 nM | 5 nM | IC50 [1]: 17 nM; IC50 (KB): 220 nM; fraction unbound [5]: 0.1; Vd [6]: 4.5 L/kg; clearance [7]: 41 mL/min/kg; half-life [8]: 1.4 h; bioavailability [9]: 23%; fraction unbound [10]: 0.21; Vd [11]: 9 L/kg; clearance [12]: 46 mL/min/kg; half-life [13]: 2.4 h; bioavailability [14]: 30%; Papp A→B (P-gp): 9.5 ×10⁻⁶ cm/s |
| Clc1cc(Nc2ncnc3n[nH]c(OCCN4CCCCCO4)c23)ccc1OCc1ccccn1 | < 1 nM | 148 nM | < 1 nM |  |
| Clc1cc(Nc2ncnc3[nH]nc(OCCN4CCOCC4)c23)ccc1OCc1ccccn1 | < 1 nM |  | 1 nM |  |
| CN1CCN(CCCOc2n[nH]c3ncnc(Nc4ccc(OCc5ccccn5)c(Cl)c4)c23)CC1 | 4 nM |  | 14 nM |  |
| COc1cc(Nc2ncnc3[nH]nc(OCCN4CCC(O)CC4)c23)ccc1OCc1ccccn1 | 17 nM | 1480 nM |  |  |
| COC1CCN(CCOc2n[nH]c3ncnc(Nc4ccc(OCc5ccccn5)c(Cl)c4)c23)CC1 | 4 nM | 82 nM | 28 nM |  |

More lines, main results first:

| IC50 [2] | IC50 [3] | IC50 [4] | Structure (SMILES) | further results |
| --- | --- | --- | --- | --- |
| < 1 nM | 184 nM | 7 nM | Cc1ccc(Oc2ccc(Nc3ncnc4[nH]nc(OCCN5CCC(O)CC5)c34)cc2Cl)cn1 |  |
| 11 nM | 415 nM |  | Cc1ccc(Oc2ccc(Nc3ncnc4[nH]nc(OCCN5CCC(O)CC5)c34)cc2C)cn1 |  |
| 5 nM |  | 1430 nM | Cc1ccc(Oc2ccc(Nc3ncnc4[nH]nc(OCCN5CCC(O)CC5)c34)cc2F)cn1 |  |
| 3 nM | 613 nM | 13 nM | COc1cc(Nc2ncnc3[nH]nc(OCCN4CCC(O)CC4)c23)ccc1OCc1cccc(F)c1 |  |
| 5 nM | 695 nM | 18 nM | Cc1cc(Nc2ncnc3[nH]nc(OCCN4CCC(O)CC4)c23)ccc1OCc1ccccn1 |  |
| 5 nM | 135 nM | 13 nM | OC1CCN(CCOc2n[nH]c3ncnc(Nc4ccc(OCc5ccccn5)c(Cl)c4)c23)CC1 |  |
| < 1 nM | 107 nM | < 1 nM | Cc1cc(Nc2ncnc3[nH]nc(OCCN4CCC(O)CC4)c23)ccc1OCc1cccc(F)c1 |  |
